Marks after values point to notes of the source that are not given here.
Tests used:
Format in all cases: in vivo
Details in all cases: 100 = 100% disease control
[1] = tested on: Erysiphe graminis f. sp. tritici; experiment: Test A: wheat powdery mildew, preventive spray on wheat seedlings, visual disease rating
Description: (§1) General protocol for preparing test suspensions for Tests A-E: the test compounds were first dissolved in acetone in an amount equal to 11% of the final volume and then suspended at the desired concentration (in ppm) in acetone and purified water (50/50 mix by volume) containing 250 ppm of the surfactant Trem® 014 (polyhydric alcohol esters). The resulting test suspensions were then used in Tests A-E. Spraying a 200 ppm test suspension to the point of run-off on the test plants was the equivalent of a rate of 800 g/ha.
The test suspension was sprayed to the point of run-off on wheat seedlings. The following day the seedlings were inoculated with a spore dust of Erysiphe graminis f. sp. tritici, (the causal agent of wheat powdery mildew) and incubated in a growth chamber at 20° C. for 8 days, after which time disease ratings were visually made.
(§2) Results for Tests A-E are given in Table A. In the Table, a rating of 100 indicates 100% disease control and a rating of 0 indicates no disease control (relative to the controls). A dash (-) indicates no test results. All results are for 200 ppm except where followed by an “*”, which indicates 40 ppm or “**”, which indicates 50 ppm.

Septoria tritici = experiment: Test C: wheat leaf blotch, preventive spray on wheat seedlings, visual disease rating
Description: as §1
(§3) The test suspension was sprayed to the point of run-off on wheat seedlings. The following day the seedlings were inoculated with a spore suspension of Septoria tritici (the causal agent of wheat leaf blotch) and incubated in a saturated atmosphere at 24° C. for 48 h, and then moved to a growth chamber at 20° C. for 19 days, after which time disease ratings were visually made.
as §2

Septoria nodorum = experiment: Test D: wheat glume blotch, preventive spray on wheat seedlings, visual disease rating
Description: as §1
as §3, with “nodorum” for “tritici”, “glume” for “leaf”, “20°” for “24°”, “7” for “19”
as §2

[2] = tested on: Puccinia recondita f sp. tritici; experiment: Test B: wheat leaf rust, preventive spray on wheat seedlings, visual disease rating
Description: as §1
as §3, with “Puccinia recondita f sp.” for “Septoria”, “rust)” for “blotch)”, “20°” for “24°”, “24” for “48”, “7” for “19”
as §2

Botrytis cinerea = experiment: Test E: tomato botrytis, preventive spray on tomato seedlings, visual disease rating
Description: as §1
The test suspension was sprayed to the point of run-off on tomato seedlings. The following day the seedlings were inoculated with a spore suspension of Botrytis cinerea (the causal agent of tomato botrytis) and incubated in saturated atmosphere at 20° C. for 48 h, and then moved to a growth chamber at 27° C. for 3 additional days, after which time disease ratings were visually made.
as §2

Row | SMILES | Test A disease control rating ([1]; 200 ppm) [%] | Test C disease control rating (Septoria tritici; 200 ppm) [%] | Test D disease control rating (Septoria nodorum; 200 ppm) [%] | Test B disease control rating ([2]; 200 ppm) [%] | Test E disease control rating (Botrytis cinerea; 200 ppm) [%] | Test A disease control rating ([1]; 40 ppm (*)) | Test C disease control rating (Septoria tritici; 40 ppm (*)) | Test D disease control rating (Septoria nodorum; 40 ppm (*)) | Test B disease control rating ([2]; 40 ppm (*)) | Test E disease control rating (Botrytis cinerea; 40 ppm (*))
1 | COC(=O)NCc1cc(-c2ccn(-c3ccc(OC)cc3OCC#N)n2)ccc1C [Cmpd 32] | 94 | 100 | 100 | 100 | 66 | – | – | – | – | –
2 | COC(=O)NCc1cc(-c2ccn(-c3ccc(Cl)cc3O)n2)ccc1C [Cmpd 33] | 0 | 2 | 100 | 94 | 0 | – | – | – | – | –
3 | C#CCOc1cc(Cl)ccc1-n1ccc(-c2ccc(C)c(CNC(=O)OC)c2)n1 [Cmpd 34] | 100 | 100 | 100 | 100 | 91 | – | – | – | – | –
4 | COC(=O)NCc1cc(-c2ccn(-c3ccc(Cl)cc3OCC#N)n2)ccc1C [Cmpd 35] | 92 | 100 | 100 | 100 | 41 | – | – | – | – | –
5 | COC(=O)NCc1cc(-n2ccc(-c3ccc(Cl)cc3C)n2)ccc1C [Cmpd 36] | – | – | – | – | – | 100* % | 100* % | 100* % | 100* % | 74* %
6 | COC(=O)NCc1cc(-n2ccc(-c3ccc(F)cc3C)n2)ccc1C [Cmpd 37] | – | – | – | – | – | 95* % | 100* % | 100* % | 100* % | 77* %
7 | COC(=O)NCc1cc(-n2ccc(-c3ccc(Cl)cc3F)n2)ccc1C [Cmpd 39] | – | – | – | – | – | 99* % | 100* % | 100* % | 100* % | 53* %
8 | COC(=O)NCc1cc(-n2ccc(-c3ccc(F)cc3Cl)n2)ccc1C [Cmpd 40] | – | – | – | – | – | 100* % | 100* % | 100* % | 100* % | 80* %
9 | COC(=O)NCc1cc(-n2ccc(-c3ccc(C)cc3Cl)n2)ccc1C [Cmpd 41] | – | – | – | – | – | 100* % | 100* % | 100* % | 100* % | 36* %
10 | COC(=O)NCc1cc(-n2ccc(-c3ccc(C)cc3F)n2)ccc1C [Cmpd 42] | – | – | – | – | – | 100* % | 99* % | 100* % | 100* % | 65* %
11 | COC(=O)NCc1cc(-n2ccc(-c3ccc(C)nc3Cl)n2)ccc1C [Cmpd 43] | – | – | – | – | – | 98* % | 87* % | 100* % | 100* % | 62* %
12 | COC(=O)NCc1cc(-n2ccc(-c3ccc(Cl)nc3C)n2)ccc1C [Cmpd 44] | – | – | – | – | – | 98* % | 92* % | 100* % | 100* % | 0* %
13 | COC(=O)NCc1cc(-n2ccc(-c3ccc(Cl)nc3OC)n2)ccc1C [Cmpd 45] | – | – | – | – | – | 98* % | 95* % | 100* % | 100* % | 39* %
14 | COC(=O)NCc1cc(-c2ccn(-c3ccc(Br)cc3[N+](=O)[O-])n2)ccc1C [Cmpd 48] | – | – | – | – | – | 0* % | 100* % | 100* % | 100* % | 37* %
15 | COC(=O)NCc1cc(-c2ccn(-c3ccc(Cl)cc3[N+](=O)[O-])n2)ccc1C [Cmpd 49] | – | – | – | – | – | 26* % | 95* % | 100* % | 100* % | 8* %
16 | COC(=O)NCc1cc(-n2ncc(-c3ccc(Cl)cc3F)n2)ccc1C [Cmpd 50] | – | – | – | – | – | 100* % | 99* % | 100* % | 100* % | 77* %
17 | C#CCOc1cc(OC)ccc1-c1ccn(-c2ccc(C)c(CNC(=O)OC)c2)n1 [Cmpd 51] | 0 | 88 | 100 | 100 | 0 | – | – | – | – | –
18 | COC(=O)NCc1cc(-c2ccn(-c3ccc(Cl)cc3C#N)n2)ccc1C [Cmpd 52] | – | – | – | – | – | 97* % | 88* % | 100* % | 100* % | 0* %
19 | COC(=O)NCc1cc(-n2ccc(-c3ccc(OC)cc3OCC#N)n2)ccc1C [Cmpd 53] | 100 | 97 | 100 | 100 | 0 | – | – | – | – | –
20 | COC(=O)NCc1cc(-n2ccc(-c3ccc(Br)cc3Cl)n2)ccc1C [Cmpd 55] | – | – | – | – | – | 100* % | 91* % | 100* % | 100* % | 38* %
21 | COC(=O)NCc1cc(-n2ccc(-c3ccc(Br)cc3F)n2)ccc1C [Cmpd 56] | – | – | – | – | – | 100* % | 98* % | 100* % | 100* % | 56* %
22 | COC(=O)NCc1cc(-n2ccc(-c3ccc(F)cc3Br)n2)ccc1C [Cmpd 57] | – | – | – | – | – | 100* % | 99* % | 100* % | 100* % | 63* %
23 | COC(=O)NCc1cc(-n2ccc(-c3ccc(Br)cc3OC)n2)ccc1C [Cmpd 58] | – | – | – | – | – | 100* % | 96* % | 100* % | 100* % | 26* %
24 | COC(=O)NCc1cc(-n2ccc(-c3ccc(OC)cc3Br)n2)ccc1C [Cmpd 59] | – | – | – | – | – | 99* % | 97* % | 100* % | 100* % | 52* %
25 | COC(=O)NCc1cc(-c2ccn(-c3ccc(F)cc3Cl)n2)ccc1C [Cmpd 60] | – | – | – | – | – | 100* % | 91* % | 100* % | 100* % | 99* %
26 | COC(=O)NCc1cc(-c2ccn(-c3ccc(Br)cc3Cl)n2)ccc1C [Cmpd 61] | – | – | – | – | – | 100* % | 94* % | 100* % | 100* % | 91* %
